From paper PMC7336998, “Discovery of secondary sulphonamides as IDO1 inhibitors with potent antitumour effects in vivo” (Journal of Enzyme Inhibition and Medicinal Chemistry, 2020)
Where two headings read alike, the source gives them in different places. One block for each molecule: values may come before it.

Legend:
[1] = tested on: CT26 colon carcinoma; test: CT26 colon carcinoma xenograft in immunodeficient BALB/c nude mice; assay type: in vivo, mouse; conditions: BALB/c nude mice, 25 mg/kg i.p, vs vehicle
Procedure: Eight-week-old male BALB/c nude mice, weighing 18–22 g, were supplied by Model Animal Research Centre of Nanjing University (Nanjing, China). 1 × 10^7/ml and 1 × 10^6 CT26 cells (in 0.1 ml PBS) were injected subcutaneously into the right flanks of mice. After CT26 xenograft BALB/c nude mouse model was established, all mice were randomly divided into three groups (n = 8). 5d (12.5 mg/kg) were administered (i.g) every day and 5-FU (25 mg/kg) awere administered (i.p) every three days. The following experimental procedures were similar to the described above.
(§1) For immunohistochemistry staining, the sections were deparaffinized, rehydrated, and washed in 1% PBS-Tween 20, and then treated with 2% hydrogen peroxide, blocked with 3% goat serum (Life Technology, 16210–064) and incubated for 2 h at room temperature with specific primary antibodies. Then the slides were incubated with streptavidin-HRP (Shanghai Gene Company, GK500705) for 40 min, then stained with DAB (Shanghai Gene Company, GK500705) substrate and counter-stained with haematoxylin. Images were acquired by microscopy (Olympus IX51).
Then, in order to clarify whether the in vivo antitumour efficacy of compound 5d was related to the mouse immune system, we repeated the above experiment in immunodeficient nude mice. Briefly, BALB/c nude mice bearing established CT26 colon carcinoma xenograft were treated with compound 5d and 5-FU for 10 days.
Figure 8. […] 1 × 10^6 CT26 cells were transplanted subcutaneously into the armpit of immunodeficient BALB/c nude mice. Three days after transplantation, mice were randomly allocated to vehicle control or treatment groups (n = 8). Drugs were administered on days 1–9. (A) Tumour volume and mouse body weight (B) were recorded. After sacrifice, solid tumours were separated and weighed (C, D). Data represent mean ± SEM, n = 8, *p < 0.05, **p < 0.01 vs vehicle.
To verify the above conclusions, we further performed H&E and IHC staining on the nude mouse CT26 tumour tissues. […] These findings further supported the above conclusions.

[2] = tested on: CT26 colon carcinoma; test: CT26 colon carcinoma xenograft in immunocompetent BALB/c mice (tumour growth, H&E, IHC, TUNEL, spleen FACS); assay type: in vivo; conditions: CT26 tumour tissue, BALB/c mice, 25 mg/kg i.p
Procedure: BALB/c mice (6–8 weeks old, 18–22 g) were supplied by Model Animal Research Centre of Nanjing University (Nanjing, China). Mice were maintained under standard specific-pathogen-free (SPF) conditions (21 ± 2 °C and 12-h light: dark cycle). Animal welfare and experimental procedures were carried out strictly in accordance with the Guide for the Care and Use of Laboratory Animals (The Ministry of Science and Technology of China, 2006) and the related ethical regulations of our university. All efforts were made to minimise animals’ suffering and to reduce the number of animals used. Mouse colon cancer cells (CT26) and melanoma cells (B16F1) were cultured and collected by centrifugation (1000 rpm, 5 min) and washed twice with ice-cold PBS. Then cells were diluted to 1 × 10^7/ml and 1 × 10^6 CT26/B16F1 cells (in 0.1 ml PBS) were injected subcutaneously into the right flanks of mice. All mice formed tumours three days after injection. Then mice were randomly distributed into five groups (n = 10/8) according to tumour volumes. 5d ([…], 12.5 mg/kg) were administered (i.g) to each group respectively every day. 5-FU (25 mg/kg) and Cis-platinum (1 mg/kg) were administered (i.p) every three days. Tumour length and tumour width were measured with a Vernier calliper every three days. Tumour volumes were measured and calculated using the equation volume = a × b^2/2, where “a” is the maximal […] and “b” is maximal orthogonal width. After the administration were completed, mice were weighed, euthanized, and tumours were removed and the weight were taken.
as §1
Given that it was the most prominent inhibitor in vitro, we chose compound 5d for further pharmacodynamic evaluation in vivo. Bowel cancer is the third leading cause of cancer in the world, thus we first evaluated the efficacy of compound 5d on the growth of murine CT26 colon carcinoma xenograft model in immunocompetent BALB/c mice. Fluorouracil (5-FU) is one of the most commonly used drugs to different cancers including bowel cancer, and was used as the positive control. The CT26 tumour-bearing mice were treated with 5d (3.125, 6.25, 12.5 mg/kg, i.g, every day) or 5-FU (25 mg/kg, i.p, […]). Tumour volumes were measured every two days for 14 days.
Figure 7. Compound 5d suppressed colon cancer growth in immunocompetent mice. 1 × 10^6 CT26 cells were transplanted subcutaneously into the armpit of the BALB/c mice. Three days after transplantation, mice were randomly allocated to vehicle control or treatment groups (n = 10). Drugs were administered on days 1–14. Tumour volume (A) and mice body weight (B) were recorded. After sacrifice, solid tumours were separated and weighed (C, D). Data represent mean ± SEM, n = 10, *p < 0.05, **p < 0.01 vs vehicle.
In order to further observe morphological changes in tumour tissues after administration of compound 5d, the tumour tissue sections obtained from the BALB/c mice bearing CT26 colorectal tumours were stained with haematoxylin-eosin (H&E) to highlight different tissue structures, such as the nucleus and cytoplasm.
Then, to understand the mechanism of tumour cell death, we detected the level of proliferating cell nuclear antigen (PCNA) protein and tumour cell apoptosis by immunohistochemistry (IHC) and terminal deoxynucleotidyl transferase dUTP nick end labelling (TUNEL) experiments, respectively. […]

[3] = target: T1, IDO1 (Homo sapiens, UniProt P14902); test: HeLa cell-based IDO1/kynurenine assay; conditions: for IC50: HeLa cells, IFN-γ induced IDO1, kynurenine readout; for inhibition at 30 µM: percentage inhibition at 30 μM, IFN-γ-treated HeLa cells, kynurenine in media; for potency increase as compared with the hit BS-1: ratio of HeLa IC50 values
T1 construct: a human cervical cancer cell line HeLa that endogenously expresses IDO1 upon IFN-γ treatment; endogenous in cells; host or cells: HeLa cells treated with human IFN-γ
Procedure: (§2) The main bioassays performed in the study, including HeLa cell-based IDO1/kynurenine assay, Western blot analysis, T cell proliferation and Treg cell differentiation experiments, were carried out as described previously.
It is well known that IDO1 is broadly expressed in human cancers and is induced by pro-inflammatory cytokines, such as interferon gamma (IFN-γ) and tumour necrosis factor alpha (TNF-α)[41]. Here we utilised a human cervical cancer cell line HeLa that endogenously expresses IDO1 upon IFN-γ treatment to evaluate the IDO1 inhibitory activity of the synthesised compounds by measuring kynurenine secreted into the media. […] Thus, we also employed this cellular assay to detect false positive IDO1 inhibitors and cytotoxic compounds by measuring HeLa cell viability. Clinical candidate navoximod was used as an assay control.

[4] = tested on: IDO1 protein expression; test: Western blot of IDO1 protein expression in IFN-γ-treated HeLa cells; assay type: cell-based, human; conditions: HeLa cells, IFN-γ 100 ng/mL 24 h, then compounds at their IC50 concentrations for 24 h
Procedure: as §2
To exclude the possibility that these secondary sulphonamides inhibit IDO1 activity by down-regulating IDO1 expression, we utilised Western blot to measure the expression of IDO1 protein in HeLa cells treated with different compounds.
Figure 3. […] (B) The greyscale scanning statistical results of A. (C) HeLa cells were incubated with compound 5d (3, 10, 30 μM) for 24 h. (D) The greyscale scanning statistical results of C. (E) HeLa cells were incubated with compound 5d (3, 10, 30 μM) for 48 h. (F) The greyscale scanning statistical results of E. Data are presented as means ± SEM (n = 3).

[5] = tested on: HeLa cells; test: HeLa cell viability by MTT at the end of the IDO1/kynurenine assay; assay type: cell-based, human; conditions: under the experimental conditions of the IDO1 assay
Excerpt: It is well known that IDO1 is broadly expressed in human cancers and is induced by pro-inflammatory cytokines, such as interferon gamma (IFN-γ) and tumour necrosis factor alpha (TNF-α)[41]. Here we utilised a human cervical cancer cell line HeLa that endogenously expresses IDO1 upon IFN-γ treatment to evaluate the IDO1 inhibitory activity of the synthesised compounds by measuring kynurenine secreted into the media. This cell-based assay, as a rapid and simple method for determination IDO1/kynurenine, is closely related to the potency of the enzyme assay and has been widely used to identify various IDO1 inhibitors[19]^,[23]^,[29]^,[42]. In addition, cytotoxic compounds can reduce cell viability, which will decrease the IDO1 levels and then lower the conversion of tryptophan to kynurenine. Thus, we also employed this cellular assay to detect false positive IDO1 inhibitors and cytotoxic compounds by measuring HeLa cell viability. Clinical candidate navoximod was used as an assay control.
Furthermore, the viability of HeLa cells was evaluated by the MTT method at the end of the assay.

[6] = tested on: naïve CD4+ T cells co-cultured with B16F1 cells; test: FoxP3+ Treg cell differentiation in B16F1-T cell co-culture (flow cytometry); assay type: cell-based, mouse; conditions: for FoxP3+ Treg cell differentiation (in words): Con A, 48 h
Procedure: as §2
Besides causing local tryptophan depletion, high IDO1 expression can also accumulate metabolites of kynurenine pathway. The elevated metabolites can not only induce effector T cell death directly through their cytotoxicity, but also promote the differentiation of naïve CD4^+ T cells into CD4^+ FoxP3^+ Treg cells by activating the AHR pathway. As a highly immunosuppressive subset of CD4^+ T cells, FoxP3^+ Treg cells are critical to the maintenance of immune homeostasis and are involved in tumour immune escape, thereby contributing to tumour development and progression. Therefore, we also utilised co-culture of B16F1 cells with naïve CD4^+ T cells to test whether the synthesised compounds could suppress IDO1 mediated Treg cell differentiation.
Figure 5. Compounds 5d and 8 g inhibited Treg cell differentiation in the cell co-culture system. (A) After co-cultured with B16F1 cells, T cells were collected. Surface staining was performed with CD4^+ FTTC and CD25^+ PE for 30 min at 4 °C. The cells were fixed and permeabilized with fixation buffer and permeabilization wash buffer. The intracellular staining was performed with FoxP3^+ APC for 20 min. The cells were then analysed by flow cytometry analysis. (B) Statistical analysis of result A. Data are represented as ± SEM (n = 3). *p < 0.05, **p < 0.01 vs T + B16F1. TEXT PRINTED IN THE PICTURE: (A) Navoximod: 8.1% (T + B16F1; 1.5 μM) | (A) 8g: 7.8% (T + B16F1; 18 μM) | (A) 5d: 2.1% (T + B16F1; 18 μM)

[7] = tested on: naïve CD4+ T cells co-cultured with B16F1 melanoma cells; test: T cell proliferation in B16F1-T cell co-culture (MTT); assay type: cell-based, mouse
Procedure: as §2
T lymphocytes are exceedingly sensitive to low tryptophan levels. Overactivation of the kynurenine pathway by high IDO1 expression leads to local tryptophan depletion, which can suppress T cell proliferation by activating the GCN2 kinase pathway and eventually result in T cell anergy. Here, to determine whether secondary sulphonamides could rescue IDO1-mediated blockade of T cell proliferation, we used a co-culture of IDO1-expressing B16F1 melanoma cells with naïve CD4^+ T cells to mimic the tumour microenvironment. Given that melanoma is a highly immunogenic tumour and IDO1 constitutively expresses in melanoma cells, B16F1 murine melanoma cell lines that express IDO1 were then used to co-culture with T cells. Naïve CD4^+ T cells were isolated from spleens of C57BL/6 mice.
Figure 4. Compounds 5d and 8 g could promote the proliferation of T cells. Based on the B16F1-T cell co-culture system, use MTT assay to test T cells proliferation. The Navoximod and compounds were added to the system at the concentration of 1.5 and 18 μM. Data represent mean ± SEM (n = 3).

[8] = target: T1, IDO1; design: method as in earlier work; conditions: HeLa cell assay; earlier series of N-acetyl secondary sulphonamides; cited from earlier work

T1 sequence (P14902 whole entry): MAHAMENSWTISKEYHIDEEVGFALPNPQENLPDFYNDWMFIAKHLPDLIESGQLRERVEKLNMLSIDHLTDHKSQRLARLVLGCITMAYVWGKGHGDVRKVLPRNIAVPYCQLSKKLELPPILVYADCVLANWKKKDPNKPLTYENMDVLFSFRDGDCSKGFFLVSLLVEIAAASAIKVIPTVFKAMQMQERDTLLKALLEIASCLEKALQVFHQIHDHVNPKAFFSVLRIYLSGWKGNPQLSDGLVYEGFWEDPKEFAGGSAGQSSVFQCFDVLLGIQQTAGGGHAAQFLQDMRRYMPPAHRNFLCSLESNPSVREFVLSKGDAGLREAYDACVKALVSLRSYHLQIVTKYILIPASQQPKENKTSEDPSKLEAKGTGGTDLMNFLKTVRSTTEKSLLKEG

SMILES: O=c1[nH]cc(F)c(=O)[nH]1 [5-FU, Fluorouracil, reference compound]
tumour growth [1]: significantly suppressed tumour growth | expression of PCNA protein (IHC) [2]: significantly reduced | number of tumour cells (H&E staining) [2]: significantly reduced | tumour cell apoptosis (TUNEL) [2]: apoptosis increased

SMILES: O[C@H](C[C@H]1c2c(F)cccc2-c2cncn21)[C@H]1CC[C@H](O)CC1 [Navoximod, (1R,4r)-4-((R)-2-((S)-6-fluoro-5H-imidazo[5,1-a]isoindol-5-yl)-1-hydroxyethyl)cyclohexan-1-ol, reference compound]
FoxP3+ Treg cells (flow cytometry) ([6]; 1.5 μM): 8.1% | FoxP3+ Treg cell differentiation (in words) ([6]; 1.5 μM): significantly reduce FoxP3^+ Treg cell differentiation | T cell proliferation ([7]; 1.5 μM): significant augmentation on T cell activity

Second part, led by results:

melting point: 156 to 158 °C | IC50 [3]: 6.64 µM | inhibition at 30 µM [3]: 89.1% | potency increase as compared with the hit BS-1 [3]: 7.4 fold
SMILES: C=CC(=O)Nc1ccc(S(=O)(=O)NCc2cccc(Br)c2)cc1 [5l, N-(4-(N-(3-Bromobenzyl)sulfamoyl)phenyl)acrylamide]
expression of IDO1 protein [4]: did not influence IDO1 expression | HeLa cell viability [5]: without affecting the cell viability

IC50 [3]: 3.76 µM | inhibition at 30 µM [3]: 93.2% | potency increase as compared with the hit BS-1 [3]: 13.1 fold
SMILES: C=CC(=O)Nc1ccc(S(=O)(=O)Nc2ccc(F)c(Cl)c2)cc1 [8g, N-(4-(N-(3-Chloro-4-fluorophenyl)sulfamoyl)phenyl)acrylamide]
FoxP3+ Treg cells (flow cytometry) ([6]; 18 μM): 7.8% | FoxP3+ Treg cell differentiation (in words) ([6]; 18 μM): significantly reduce FoxP3^+ Treg cell differentiation | expression of IDO1 protein [4]: did not influence IDO1 expression | HeLa cell viability [5]: without affecting the cell viability | T cell proliferation ([7]; 18 μM): significant augmentation on T cell activity

potency increase as compared with the hit BS-1 [3]: 8.4 fold
SMILES: COc1ccc(CNS(=O)(=O)c2ccc(NC(C)=O)cc2)cc1 [N-(4-(N-(4-methoxybenzyl)sulfamoyl)phenyl)acetamide, reference compound]
IC50 [8]: 5.88 µM
